The record followed here is ChEMBL document CHEMBL5154644, “Design, Synthesis, and Structure-Activity Relationship Optimization of Pyrazolopyrimidine Amide Inhibitors of Phosphoinositide 3-Kinase γ (PI3Kγ)” (J Med Chem, 2022).

Structures are written as SMILES.

The species entered for data set [1] is Homo sapiens. Description: Selectivity ratio of IC50 for inhibition of PI3Kalpha (unknown origin) to IC50 for inhibition of PI3Kgamma (unknown origin).
A short description of data set [2]: Volume of distribution at steady state in Beagle dog at 1 mg/kg, iv. The data set is classed as ADME, organism-based, Canis lupus familiaris. The note with it: in vivo.
Data set [3] in a line: Clearance in Sprague-Dawley rat at 1 mg/kg, iv measured up to 8 hrs by LC-MS/MS analysis. The conditions noted are these: in vivo. Type of data set: ADME, organism-based.
Data set [4] deals with Phosphatidylinositol 4,5-bisphosphate 3-kinase catalytic subunit beta isoform (Homo sapiens, UniProt P42338). Description: Inhibition of PI3Kbeta (unknown origin) using PIP2 as substrate preincubated for 1 hr followed by substrate addition and measured after 60 mins in presence of ATP by ADP-glo assay. Background: ADP-Glo first removes unused ATP, then detects ADP through luciferase.

Data set [5] can be described thus: Clearance in C57BL/6 mouse at 0.5 mg/kg, iv. The conditions noted are these: in vivo. The data set is classed as ADME, organism-based.
Data set [6] can be described thus: MRT (infinity) in cynomolgus monkey at 1 mg/kg, iv. Type of data set: ADME, organism-based, Macaca fascicularis. The conditions noted are these: in vivo.
For data set [7], the target named is CYP3A4 (Homo sapiens, UniProt P08684). Description: in vitro. The note with it: human liver microsomes, probe midazolam.
Description: Time dependent inhibition of CYP3A4 in human liver microsomes at 10 uM using midazolam as substrate preincubated for 30 mins in presence of NADPH by LC/MS/MS analysis relative to control
Data set [8] addresses Phosphatidylinositol 4,5-bisphosphate 3-kinase catalytic subunit gamma isoform (Homo sapiens, UniProt P48736). Description: Inhibition of PI3Kgamma (unknown origin) in […] stimulated human THP-1 cells assessed as reduction in Akt phosphorylation level at Ser473 residue preincubated for 60 mins followed by rhMCP-1 stimulation and measured after 2 mins by AlphaLisa assay. The data set is classed as cell-based. On the technique in general: In Alpha technology, singlet oxygen from a donor bead excites a nearby acceptor bead.

A short description of data set [9]: Half life in cynomolgus monkey at 1 mg/kg, iv. The conditions noted are these: in vivo. The data set is classed as ADME, organism-based, Macaca fascicularis.
Data set [10] in a line: Plasma protein binding in Sprague-Dawley rat plasma at 1 mg/kg, iv measured up to 8 hrs by LC-MS/MS analysis. The conditions noted are these: read-out: PPB (converted). Type of data set: ADME, organism-based.
Data set [11] is described as follows: Metabolic stability in rat hepatocyte assessed as intrinsic clearance per 10^8 cells at 0.5 uM by LC-MS/MS analysis. The data set is classed as ADME, cell-based. The conditions noted are these: hepatocytes.
Data set [12] in a line: Half life in Beagle dog at 1 mg/kg, iv. The data set is classed as ADME, organism-based, Canis lupus familiaris. The note with it: in vivo.
Data set [13] in a line: Half life in C57BL/6 mouse at 0.5 mg/kg, iv. Type of data set: ADME, organism-based. The note with it: in vivo.
The nature of data set [14]: Hepatic clearance in Sprague-Dawley rat by LC-MS/MS analysis. The data set is classed as ADME. The conditions noted are these: in vivo.
Data set [15] is described as follows: AUC(0 to infinity) in Beagle dog at 1 mg/kg, iv. The data set is classed as ADME, organism-based, Canis lupus familiaris. On the set-up: time infinity, dose 1 mg/kg, route iv. The note with it: in vivo.
The nature of data set [16]: MRT (infinity) in C57BL/6 mouse at 0.5 mg/kg, iv. The data set is classed as ADME, organism-based. The note with it: in vivo.
The nature of data set [17]: Plasma protein binding in Beagle dog at 1 mg/kg, iv. The data set is classed as ADME, organism-based, Canis lupus familiaris. The note with it: read-out: PPB (converted).
The nature of data set [18]: Half life in Sprague-Dawley rat at 1 mg/kg, iv measured up to 8 hrs by LC-MS/MS analysis. The conditions noted are these: in vivo. The data set is classed as ADME, organism-based.
The target of data set [19] is T1, Cytochrome P450 2B6 (Homo sapiens, UniProt P20813).
T1 sequence (P20813 whole entry): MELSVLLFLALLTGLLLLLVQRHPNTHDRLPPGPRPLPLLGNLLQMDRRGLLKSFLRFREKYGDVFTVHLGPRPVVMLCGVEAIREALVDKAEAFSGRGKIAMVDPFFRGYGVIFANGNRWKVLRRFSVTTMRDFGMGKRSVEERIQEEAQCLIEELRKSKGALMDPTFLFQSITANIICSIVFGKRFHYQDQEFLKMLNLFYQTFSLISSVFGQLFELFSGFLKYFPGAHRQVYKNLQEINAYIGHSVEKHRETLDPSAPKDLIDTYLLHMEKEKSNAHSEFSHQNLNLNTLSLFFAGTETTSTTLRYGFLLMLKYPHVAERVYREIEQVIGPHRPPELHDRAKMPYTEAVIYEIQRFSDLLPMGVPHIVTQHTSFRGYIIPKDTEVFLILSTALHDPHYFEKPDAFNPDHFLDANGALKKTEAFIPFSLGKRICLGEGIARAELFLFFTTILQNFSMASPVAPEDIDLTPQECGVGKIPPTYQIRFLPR
Description: Time dependent inhibition of CYP2B6 in human liver microsomes at 40 uM measured after 5 to 20 mins in presence of NADPH by LC/MS/MS analysis. The data set is classed as ADME, Microsome. A general note: Liver microsomes are vesicles of endoplasmic reticulum, rich in cytochrome P450 enzymes.

Data set [20] has as its target Cytochrome P450 2C9 (Homo sapiens, UniProt P11712). Description: Time dependent inhibition of CYP2C9 in human liver microsomes at 40 uM using diclofenac as substrate measured after 5 to 20 mins in presence of NADPH by LC/MS/MS analysis. Type of data set: ADME, Microsome.
For data set [21], the target named is T2, Cytochrome P450 1A2 (Homo sapiens, UniProt P05177).
T2 sequence (P05177 whole entry): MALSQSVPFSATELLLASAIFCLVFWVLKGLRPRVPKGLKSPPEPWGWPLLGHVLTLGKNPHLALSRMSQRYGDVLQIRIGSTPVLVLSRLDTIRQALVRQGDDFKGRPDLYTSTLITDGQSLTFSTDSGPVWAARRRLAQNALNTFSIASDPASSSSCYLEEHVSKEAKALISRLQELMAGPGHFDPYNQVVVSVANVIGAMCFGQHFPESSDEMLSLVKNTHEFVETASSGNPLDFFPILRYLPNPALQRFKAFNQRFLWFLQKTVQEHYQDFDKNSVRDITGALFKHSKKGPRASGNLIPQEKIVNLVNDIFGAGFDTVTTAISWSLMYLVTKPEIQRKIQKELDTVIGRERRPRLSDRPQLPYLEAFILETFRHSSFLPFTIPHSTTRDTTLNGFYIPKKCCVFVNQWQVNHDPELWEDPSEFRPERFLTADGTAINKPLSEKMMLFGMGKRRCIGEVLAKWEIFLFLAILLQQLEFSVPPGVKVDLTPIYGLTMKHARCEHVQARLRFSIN
Description: Time dependent inhibition of CYP1A2 in human liver microsomes at 40 uM using phenacetin as substrate measured after 5 to 20 mins in presence of NADPH by LC/MS/MS analysis. The data set is classed as ADME, Microsome.

Data set [22] deals with T3, Cytochrome P450 2C8 (Homo sapiens, UniProt P10632).
T3 sequence (P10632 whole entry): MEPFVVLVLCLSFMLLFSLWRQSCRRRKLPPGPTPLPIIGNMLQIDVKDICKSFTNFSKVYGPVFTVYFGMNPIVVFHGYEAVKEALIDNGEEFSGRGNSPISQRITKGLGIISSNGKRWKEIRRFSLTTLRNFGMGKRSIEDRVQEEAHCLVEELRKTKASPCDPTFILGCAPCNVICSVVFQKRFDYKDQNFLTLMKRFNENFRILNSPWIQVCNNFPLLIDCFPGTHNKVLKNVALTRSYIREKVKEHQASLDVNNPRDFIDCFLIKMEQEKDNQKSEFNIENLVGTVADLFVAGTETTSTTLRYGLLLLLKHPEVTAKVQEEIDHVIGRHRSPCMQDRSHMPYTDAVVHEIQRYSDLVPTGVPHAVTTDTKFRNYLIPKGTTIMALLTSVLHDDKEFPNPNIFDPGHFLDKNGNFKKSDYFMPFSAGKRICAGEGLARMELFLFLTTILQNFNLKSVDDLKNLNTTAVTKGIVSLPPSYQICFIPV
Description: Time dependent inhibition of CYP2C8 in human liver microsomes at 40 uM measured after 5 to 20 mins in presence of NADPH by LC/MS/MS analysis. Type of data set: ADME, Microsome.

Sequence of CYP3A4 (P08684 whole entry, canonical isoform): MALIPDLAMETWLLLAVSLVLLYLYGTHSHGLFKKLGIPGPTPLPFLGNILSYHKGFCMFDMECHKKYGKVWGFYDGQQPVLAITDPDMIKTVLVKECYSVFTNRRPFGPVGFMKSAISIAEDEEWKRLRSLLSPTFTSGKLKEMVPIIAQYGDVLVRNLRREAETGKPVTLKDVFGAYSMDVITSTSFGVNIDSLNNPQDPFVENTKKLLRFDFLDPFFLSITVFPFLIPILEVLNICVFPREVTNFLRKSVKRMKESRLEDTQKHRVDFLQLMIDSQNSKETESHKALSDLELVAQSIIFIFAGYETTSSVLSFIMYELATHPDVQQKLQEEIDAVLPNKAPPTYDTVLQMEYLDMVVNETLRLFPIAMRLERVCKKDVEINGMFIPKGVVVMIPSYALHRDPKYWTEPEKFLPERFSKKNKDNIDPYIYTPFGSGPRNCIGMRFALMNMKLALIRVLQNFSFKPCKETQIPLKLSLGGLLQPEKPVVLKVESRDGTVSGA
Sequence of Phosphatidylinositol 4,5-bisphosphate 3-kinase catalytic subunit beta isoform (P42338 whole entry, canonical isoform): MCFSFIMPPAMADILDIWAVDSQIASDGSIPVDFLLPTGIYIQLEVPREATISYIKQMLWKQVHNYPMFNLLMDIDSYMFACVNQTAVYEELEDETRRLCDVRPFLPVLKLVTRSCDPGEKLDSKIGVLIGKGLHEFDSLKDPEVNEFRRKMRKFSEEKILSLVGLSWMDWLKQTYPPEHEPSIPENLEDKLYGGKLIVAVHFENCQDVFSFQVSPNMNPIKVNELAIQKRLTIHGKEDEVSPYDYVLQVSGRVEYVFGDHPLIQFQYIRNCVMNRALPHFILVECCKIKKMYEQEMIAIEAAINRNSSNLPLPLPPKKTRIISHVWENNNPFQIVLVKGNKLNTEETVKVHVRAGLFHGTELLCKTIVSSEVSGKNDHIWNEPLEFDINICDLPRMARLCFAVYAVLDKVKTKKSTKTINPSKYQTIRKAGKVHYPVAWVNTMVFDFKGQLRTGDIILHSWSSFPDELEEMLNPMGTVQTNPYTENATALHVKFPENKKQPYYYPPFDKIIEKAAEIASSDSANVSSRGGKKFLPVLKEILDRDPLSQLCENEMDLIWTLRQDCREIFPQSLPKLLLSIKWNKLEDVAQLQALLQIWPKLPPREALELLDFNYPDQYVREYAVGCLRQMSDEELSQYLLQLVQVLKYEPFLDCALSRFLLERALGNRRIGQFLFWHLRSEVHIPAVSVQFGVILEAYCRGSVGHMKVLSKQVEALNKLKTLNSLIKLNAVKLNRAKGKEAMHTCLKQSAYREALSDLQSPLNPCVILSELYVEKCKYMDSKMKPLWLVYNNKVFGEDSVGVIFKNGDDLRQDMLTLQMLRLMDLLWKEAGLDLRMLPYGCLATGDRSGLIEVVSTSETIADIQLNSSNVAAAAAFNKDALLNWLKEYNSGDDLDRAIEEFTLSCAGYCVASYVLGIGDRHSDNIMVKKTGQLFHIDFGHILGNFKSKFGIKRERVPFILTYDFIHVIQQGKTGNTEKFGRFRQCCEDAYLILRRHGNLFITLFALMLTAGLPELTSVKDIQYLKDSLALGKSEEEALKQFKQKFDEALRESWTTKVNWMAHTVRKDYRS
Sequence of Phosphatidylinositol 4,5-bisphosphate 3-kinase catalytic subunit gamma isoform (P48736 whole entry, canonical isoform): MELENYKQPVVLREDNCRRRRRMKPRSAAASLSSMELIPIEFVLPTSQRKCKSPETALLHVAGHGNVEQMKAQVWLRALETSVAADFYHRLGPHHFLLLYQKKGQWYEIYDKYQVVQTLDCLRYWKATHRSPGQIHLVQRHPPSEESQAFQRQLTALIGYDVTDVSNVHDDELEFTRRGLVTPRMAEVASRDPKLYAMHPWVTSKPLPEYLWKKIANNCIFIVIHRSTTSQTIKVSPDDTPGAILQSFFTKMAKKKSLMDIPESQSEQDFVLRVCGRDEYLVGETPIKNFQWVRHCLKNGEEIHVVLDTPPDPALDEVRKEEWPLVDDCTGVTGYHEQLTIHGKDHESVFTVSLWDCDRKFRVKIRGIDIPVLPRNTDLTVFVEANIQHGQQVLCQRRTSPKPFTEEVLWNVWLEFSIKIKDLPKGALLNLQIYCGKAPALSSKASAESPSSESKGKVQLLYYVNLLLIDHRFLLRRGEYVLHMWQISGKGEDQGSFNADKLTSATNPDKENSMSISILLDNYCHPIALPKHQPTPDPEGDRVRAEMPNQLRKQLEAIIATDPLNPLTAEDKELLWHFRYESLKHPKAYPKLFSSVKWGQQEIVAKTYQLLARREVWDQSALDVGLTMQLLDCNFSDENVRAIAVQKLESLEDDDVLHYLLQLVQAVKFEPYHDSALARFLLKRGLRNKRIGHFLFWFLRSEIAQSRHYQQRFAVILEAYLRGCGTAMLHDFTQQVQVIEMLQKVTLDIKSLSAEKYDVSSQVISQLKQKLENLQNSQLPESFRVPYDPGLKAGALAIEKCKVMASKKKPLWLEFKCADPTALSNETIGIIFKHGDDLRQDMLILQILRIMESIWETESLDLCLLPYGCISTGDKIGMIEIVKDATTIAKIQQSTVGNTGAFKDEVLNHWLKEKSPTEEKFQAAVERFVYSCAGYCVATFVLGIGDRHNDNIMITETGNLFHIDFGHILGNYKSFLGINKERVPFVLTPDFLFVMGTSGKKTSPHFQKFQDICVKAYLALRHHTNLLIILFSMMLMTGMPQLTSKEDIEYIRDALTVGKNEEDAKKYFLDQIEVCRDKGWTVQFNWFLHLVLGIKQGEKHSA
Sequence of Cytochrome P450 2C9 (P11712 whole entry): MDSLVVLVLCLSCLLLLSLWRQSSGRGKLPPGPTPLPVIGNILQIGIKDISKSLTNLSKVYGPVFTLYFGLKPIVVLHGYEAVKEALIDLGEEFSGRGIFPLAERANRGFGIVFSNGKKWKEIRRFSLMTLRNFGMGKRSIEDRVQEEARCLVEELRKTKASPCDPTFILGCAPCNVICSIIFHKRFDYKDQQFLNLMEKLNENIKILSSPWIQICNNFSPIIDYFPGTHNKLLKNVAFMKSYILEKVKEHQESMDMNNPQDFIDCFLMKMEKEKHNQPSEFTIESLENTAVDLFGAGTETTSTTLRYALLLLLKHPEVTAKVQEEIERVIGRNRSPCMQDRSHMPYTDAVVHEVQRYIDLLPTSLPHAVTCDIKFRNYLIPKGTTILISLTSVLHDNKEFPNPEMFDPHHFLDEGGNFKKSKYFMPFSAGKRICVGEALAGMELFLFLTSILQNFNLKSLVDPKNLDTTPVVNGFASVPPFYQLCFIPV

Turning to `C[C@@H](C1CC1)N1Cc2cc(-c3ccn4nc(N)c(C(=O)N[C@H]5CC[C@@](C)(O)CC5)c4n3)cc(OC(F)(F)F)c2C1=O`, in data set [1], the Ratio IC50 was found to be 946. Moreover, the Vdss in data set [2] amounted to 3.24 L/kg. In addition, the clearance is 20.8 mL/min/kg in data set [3] and 17.2 mL/min/kg in [5]. The IC50 in data set [4] stood at 29.3 µM; in data set [8], 0.038 µM. In addition, the MRT inf in data set [6] came out at 3.58 h; in [16], 2.03 h. Moreover, in data set [7], the inhibition at 30 min, 10 µM came out at 10%. In addition, the half-life in [9] was 3.65 h; in data set [12], 3.5 h; in [13], 3.93 h; in data set [18] it was 2.17 h. Moreover, in [10], the fraction unbound at 8 h is 0.023. Further, the hepatocyte intrinsic clearance in data set [11] turned out to be 6.07 µL/min. In data set [14], this compound displayed a CLH of 30 mL/min/kg. The compound further yielded an AUC(0-inf) in [15] of 1240 ng·h/mL. For the same compound, the fraction unbound in data set [17] was 0.048.
In the case of `C[C@@H](C1CC1)N1Cc2cc(-c3ccn4nc(N)c(C(=O)N[C@H]5CC[C@@](C)(O)CC5)c4n3)cc(OC(F)F)c2C1=O`, the Ratio IC50 in data set [1] came out at 657. Besides, the Vdss in data set [2] came to 3.55 L/kg. Also, the clearance in data set [3] is 27.5 mL/min/kg; in data set [5] it was 14.7 mL/min/kg. For the same compound, the half-inhibitory concentration (IC50) in data set [19] was more than 20 µM; in data set [20], more than 20 µM; in [4], 9.21 µM; in [21] it was more than 20 µM; in data set [8] it was 0.034 µM; in data set [22] it was more than 20 µM. Besides, the MRT inf in [6] amounted to 3.41 h; in data set [16], 1.87 h. This compound also gave an inhibition at 30 min, 10 µM in data set [7] of 10%. The half-life in [9] was 3.18 h; in [12] it was 4.85 h; in data set [13], 4.98 h; in data set [18] it was 1.89 h. Besides, the fraction unbound at 8 h in data set [10] is 0.021. In [11], the hepatocyte intrinsic clearance is 2.62 µL/min. The compound further yielded a CLH in data set [14] of 25 mL/min/kg. The AUC(0-inf) in data set [15] came to 1800 ng·h/mL. Also, the fraction unbound in [17] is 0.034.

The term Vdss denotes a proportionality between amount in the body and measured concentration, not a real space. Broadly, the clearance is the rate of elimination divided by the concentration. As usually defined, the IC50 is the concentration that inhibits the measured activity by half. Usually MRT inf stands for a mean duration of stay, worked out from the concentration-time curve. As usually defined, the inhibition is the drop in the measured response relative to a control, in per cent. As a reminder, the half-life is how long it takes for the measured level to halve. The AUC(0-inf) is total exposure, with the tail of the curve extrapolated.
